Experimental findings from ChEMBL document CHEMBL3046928, “Skimmianine, a furoquinoline alkaloid from Zanthoxylum nitidum as a potential acetylcholinesterase inhibitor” (Med Chem Res, 2012) are described below.

In experiment [1] the target is T1, Acetylcholinesterase (Homo sapiens, UniProt P22303). The experiment can be described thus: Inhibition of AChE (unknown origin) at 10 mg/ml after 20 min by TLC bioautographic assay.
Experiment [2] deals with T1, Acetylcholinesterase. Particulars: at 0.1 mg/mL.
Experiment [3] addresses T1, Acetylcholinesterase.

Activity calls are given as the source filed them. The rule behind the calls is not given here. A value given as a limit tells only on which side of the number the result lay.

T1 sequence (P22303 whole entry): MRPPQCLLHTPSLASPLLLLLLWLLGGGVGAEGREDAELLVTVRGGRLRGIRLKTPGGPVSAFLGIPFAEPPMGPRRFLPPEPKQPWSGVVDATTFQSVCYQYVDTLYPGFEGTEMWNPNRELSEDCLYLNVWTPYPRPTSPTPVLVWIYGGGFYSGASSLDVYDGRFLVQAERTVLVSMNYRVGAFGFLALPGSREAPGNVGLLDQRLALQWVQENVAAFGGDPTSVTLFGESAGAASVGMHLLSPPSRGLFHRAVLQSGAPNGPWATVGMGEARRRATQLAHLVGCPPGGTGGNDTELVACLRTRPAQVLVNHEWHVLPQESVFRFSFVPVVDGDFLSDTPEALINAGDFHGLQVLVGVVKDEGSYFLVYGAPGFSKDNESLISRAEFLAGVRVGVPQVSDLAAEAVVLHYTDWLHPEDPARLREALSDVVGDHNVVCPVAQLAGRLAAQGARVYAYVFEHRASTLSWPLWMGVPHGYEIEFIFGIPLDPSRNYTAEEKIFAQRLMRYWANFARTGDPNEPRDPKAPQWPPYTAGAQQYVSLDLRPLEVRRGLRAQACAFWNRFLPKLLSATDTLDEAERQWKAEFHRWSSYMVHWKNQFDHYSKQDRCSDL

A word on the inhibition: it is the share of the control response that was lost under treatment. Usually IC50 stands for the concentration needed to halve the response being measured. Turning to `COc1ccc2c(OC)c3ccoc3nc2c1OC` [SKIMMIANINE], on Acetylcholinesterase [1], the inhibition entry is “Active”. The inhibition against Acetylcholinesterase [2] came out at 91.3%. For the same compound, the IC50 on Acetylcholinesterase [3] (read-out: IC50 (converted)) was 33.2 µM.

For `COc1cc2oc(=O)ccc2c(OC)c1OC` [5,6,7-TRIMETHOXYCOUMARIN], the inhibition at Acetylcholinesterase [2] was found to be 49.7%. Besides, the half-inhibitory concentration (IC50) on Acetylcholinesterase [3] (read-out: IC50 (converted)) was over 423 µM.

In turn, `COc1c2[nH]c3occc3c(OC)c-2ccc1=O` [HAPLOPINE] returned an inhibition against Acetylcholinesterase [2] of 51.9%. In addition, on Acetylcholinesterase [3] (read-out: IC50 (converted)), the IC50 is over 408 µM.

Regarding `COc1c2ccoc2nc2c(OC)cccc12` [GAMMA-FAGARINE], the inhibition against Acetylcholinesterase [2] was determined as 24.3%. The IC50 entry against Acetylcholinesterase [3] is “Not Active”.

`COc1cccc2c3c(c(=O)n(C)c12)[C@@H](O)[C@H](O)C(C)(C)O3` (relative stereo) [REL-ZANTHODIOLINE] came in with an inhibition against Acetylcholinesterase [2] of 34.4%. Further, at Acetylcholinesterase [3], the IC50 result is “Not Active”.

`COc1cc(=O)[nH]c2c(OC)cccc12` [EDULITINE] came in with an inhibition on Acetylcholinesterase [2] of 45.1%. Further, at Acetylcholinesterase [3] (read-out: IC50 (converted)), the IC50 is over 487 µM.

The compound `COc1cc2oc(=O)ccc2c(OC)c1C[C@@H](O)C(C)(C)O` [TODDALOLACTONE] returned an inhibition against Acetylcholinesterase [2] of 33.9%. Also, the IC50 result against Acetylcholinesterase [3] is listed as “Not Active”.

In turn, `COc1c(C[C@H](C)C(C)(C)O)c(=O)n(C)c2ccccc12` [(-)-(S)-EDULININE] had an inhibition against Acetylcholinesterase [2] of 19.4%. The IC50 entry on Acetylcholinesterase [3] is given as “Not Active”.

In the case of `COc1c2ccccc2nc2occc12` [DICTAMNINE], the inhibition against Acetylcholinesterase [2] came to 12.6%. Besides, on Acetylcholinesterase [3], the IC50 entry is “Not Active”.

As to `COc1ccc(C(=O)[C@@H]2CO[C@H](c3ccc4c(c3)OCO4)[C@H]2CO)cc1OC` [MAGNOLONE], on Acetylcholinesterase [2], the inhibition came to 9.9%. The IC50 entry on Acetylcholinesterase [3] is on record as “Not Active”.
